Measurements from patent publication US12139477B2, “Compounds, salts thereof and methods for treatment of diseases” (ACADIA PHARMACEUTICALS INC., priority 2017, dated 2024).
Structures can show the parent of a compound that is named as a salt.

Experiments:
hCav1.2/β2/α2δ channels = hCav1.2/β2/α2δ channels (Homo sapiens, UniProt Q13936); assay: CaV1.2 manual patch clamp, CHO cells (CR-CLE); type: cell-based
Description: Stocks were maintained in cryogenic storage. […] Each culture dish was identified by a notation of channel name, passage number, and date.
Rationale for Selection of Ion Channel and Expression Systems: Reduction of ICa,L is associated with action potential shortening in atrial fibrillation (Van Wagoner, et al., Circ Res 85:428-436 (1999)) while augmentation of ICa,L current may produce action potential prolongation (Ahmmed, et al., Circ Res 86:558-570 (2000)) and early after depolarizations (January, et al., Circ Res 62:563-571 (1988)). ICa.L is produced by the combination of calcium channel subunits encoded by CACNA1C (α1-subunit), CACNB2 (β2-subunit) and CACNA2D1 (α2δ-subunit) cDNAs.
• Organism: Cricetulus griseus • Tissue: Ovary; transfected with human CACNA1C • (α1-subunit), CACNB2 (β2-subunit), and • CACNA2D1 (α2δ-subunit) cDNAs • Morphology: Epithelial • Age/Stage: Adult • Source Strain: ATCC, Manassas, VA • Source Substrain: CR-CLE
CHO Cell Culture Procedures: CHO cells were stably co-transfected with human CACNA1C (α1-subunit), CACNB2 (β2-subunit), and CACNA2D1 (α2δ-subunit) cDNAs. Stable transfectants were selected by coexpression of the cDNAs with antibiotic resistance genes for blasticidin, hygromycin, G418, and zeocin. Selection pressure was maintained by including these antibiotics in the culture medium. Cells were cultured in Ham's F12 Medium supplemented with 10% fetal bovine serum, penicillin-streptomycin (100 units/mL), blasticidin (10 μg/mL), zeocin (400 μg/mL), G418 (250 μg/mL) and hygromycin (250 μg/mL). To avoid Ca^2+-induced toxicity, verapamil (3 μmol/L) was added to the cultured cells.
hCav1.2/β2/α2δ-CHO is a tetracycline-inducible cell line. To induce expression, tetracycline at a final concentration of 1 μg/mL was added to media lacking the selection antibiotics. Currents were recorded greater than 16 hours post-induction.
Treatment Groups: All experiments were performed at room temperature. Each cell acted as its own control.
Each concentration was tested in at least three cells (n≥3).
Positive Control Group: The positive control article nifedipine (Sigma-Aldrich) was tested in two cells (n=2) at 0.1 μM. Previous results have shown that nifedipine at 0.1 μM inhibits hCav1.2 current by approximately 90%.
Electrophysiological Procedures: Cells were superfused with vehicle control solution. Micropipette solution for whole cell patch clamp recordings was composed of (mM): Cs-methanesulfonate (MES), 130; TEA-Cl, 20, MgCl2, 1; EGTA, 10; Mg-ATP, 4; Tris-GTP, 0.3, phosphocreatine di-(Tris) salt, 14, creatine phosphokinase, 50 U/mL, and HEPES, 10; pH adjusted to 7.2 with N-methyl-D-glucamine or CsOH. Micropipette solution was prepared in batches, aliquoted, stored frozen, and a fresh aliquot thawed each day. […] Before digitization, current records were low-pass filtered at one-fifth of the sampling frequency.
Experimental Procedures: Onset and steady inhibition was evaluated at a test potential of 0 mV (150 ms duration), repeated at ten-second intervals from a holding potential of −40 mV. Peak current was measured during the step to 0 mV. Peak current was monitored until a new steady state was achieved. hCav1.2 current was monitored until a new steady state was achieved and a steady state was maintained for at least 20 s before applying test article or positive control article formulations. […]
(§1) Nonlinear least squares fits were solved with the Solver add-in for Excel 2003 or later (Microsoft, Redmond, WA) and the IC50 was calculated.

[1] = molecular target: T1, late hNav1.5 channel current (Homo sapiens, UniProt Q14524); assay: NaV1.5 (for pimavanserin): late hNav1.5 current, HEK-293, ATX-II activated (CR-CLE); type: cell-based
Experimental: as §1
0.1 μM ATX-II was omitted from the vehicle control solution used during initial gigaohm seal formation, transition to whole-cell patch clamp configuration and preliminary baseline recording before activation of late Nav1.5 current with 0.1 μM ATX-II. […] Positive Control Article: • Name: Ranolazine dihydrochloride • Source: Tocris • Batch Number: 2A/215231 • Molecular Weight: 509.47 g/mol • Purity: 98.7% • Storage Conditions: Room temperature • Rationale for Selection: Previous results have shown that 100 μM ranolazine dihydrochloride inhibits INa,L by approximately 85% End Blocker • Name: Lidocaine • Source: Sigma-Aldrich • Lot Number: MKBX2132V • Molecular Weight (g/mol): 234.34 • Storage Conditions: Room temperature • Rationale for Selection: Lidocaine is an inhibitor of peak hNav1.5 and late hNav1.5 currents. Each recording will end with application of 2 mM lidocaine to determine the amplitude of endogenous currents. […]
Electrophysiological Procedures: Cells were superfused with vehicle control solution without ATX-II (HB-PS+0.3% DMSO) until after whole-cell configuration was achieved and a stable baseline current was recorded. […]

[2] = as stated by the drug label; cited from earlier work
hERG potassium channel = hERG potassium channel (Homo sapiens, UniProt Q12809); assay: in vitro; conditions: human, pH 7.4
Experimental: Each cell acted as its own control.
Temperature was measured using a thermistor probe in the recording chamber.

[3] = molecular target: T1, late hNav1.5 channel current; conditions: Oliveira, et al., J. Biol. Chem. 279 (2004); read-out: EC50 for increase of INa,L; cited from earlier work

T1 sequence (Q14524 whole entry): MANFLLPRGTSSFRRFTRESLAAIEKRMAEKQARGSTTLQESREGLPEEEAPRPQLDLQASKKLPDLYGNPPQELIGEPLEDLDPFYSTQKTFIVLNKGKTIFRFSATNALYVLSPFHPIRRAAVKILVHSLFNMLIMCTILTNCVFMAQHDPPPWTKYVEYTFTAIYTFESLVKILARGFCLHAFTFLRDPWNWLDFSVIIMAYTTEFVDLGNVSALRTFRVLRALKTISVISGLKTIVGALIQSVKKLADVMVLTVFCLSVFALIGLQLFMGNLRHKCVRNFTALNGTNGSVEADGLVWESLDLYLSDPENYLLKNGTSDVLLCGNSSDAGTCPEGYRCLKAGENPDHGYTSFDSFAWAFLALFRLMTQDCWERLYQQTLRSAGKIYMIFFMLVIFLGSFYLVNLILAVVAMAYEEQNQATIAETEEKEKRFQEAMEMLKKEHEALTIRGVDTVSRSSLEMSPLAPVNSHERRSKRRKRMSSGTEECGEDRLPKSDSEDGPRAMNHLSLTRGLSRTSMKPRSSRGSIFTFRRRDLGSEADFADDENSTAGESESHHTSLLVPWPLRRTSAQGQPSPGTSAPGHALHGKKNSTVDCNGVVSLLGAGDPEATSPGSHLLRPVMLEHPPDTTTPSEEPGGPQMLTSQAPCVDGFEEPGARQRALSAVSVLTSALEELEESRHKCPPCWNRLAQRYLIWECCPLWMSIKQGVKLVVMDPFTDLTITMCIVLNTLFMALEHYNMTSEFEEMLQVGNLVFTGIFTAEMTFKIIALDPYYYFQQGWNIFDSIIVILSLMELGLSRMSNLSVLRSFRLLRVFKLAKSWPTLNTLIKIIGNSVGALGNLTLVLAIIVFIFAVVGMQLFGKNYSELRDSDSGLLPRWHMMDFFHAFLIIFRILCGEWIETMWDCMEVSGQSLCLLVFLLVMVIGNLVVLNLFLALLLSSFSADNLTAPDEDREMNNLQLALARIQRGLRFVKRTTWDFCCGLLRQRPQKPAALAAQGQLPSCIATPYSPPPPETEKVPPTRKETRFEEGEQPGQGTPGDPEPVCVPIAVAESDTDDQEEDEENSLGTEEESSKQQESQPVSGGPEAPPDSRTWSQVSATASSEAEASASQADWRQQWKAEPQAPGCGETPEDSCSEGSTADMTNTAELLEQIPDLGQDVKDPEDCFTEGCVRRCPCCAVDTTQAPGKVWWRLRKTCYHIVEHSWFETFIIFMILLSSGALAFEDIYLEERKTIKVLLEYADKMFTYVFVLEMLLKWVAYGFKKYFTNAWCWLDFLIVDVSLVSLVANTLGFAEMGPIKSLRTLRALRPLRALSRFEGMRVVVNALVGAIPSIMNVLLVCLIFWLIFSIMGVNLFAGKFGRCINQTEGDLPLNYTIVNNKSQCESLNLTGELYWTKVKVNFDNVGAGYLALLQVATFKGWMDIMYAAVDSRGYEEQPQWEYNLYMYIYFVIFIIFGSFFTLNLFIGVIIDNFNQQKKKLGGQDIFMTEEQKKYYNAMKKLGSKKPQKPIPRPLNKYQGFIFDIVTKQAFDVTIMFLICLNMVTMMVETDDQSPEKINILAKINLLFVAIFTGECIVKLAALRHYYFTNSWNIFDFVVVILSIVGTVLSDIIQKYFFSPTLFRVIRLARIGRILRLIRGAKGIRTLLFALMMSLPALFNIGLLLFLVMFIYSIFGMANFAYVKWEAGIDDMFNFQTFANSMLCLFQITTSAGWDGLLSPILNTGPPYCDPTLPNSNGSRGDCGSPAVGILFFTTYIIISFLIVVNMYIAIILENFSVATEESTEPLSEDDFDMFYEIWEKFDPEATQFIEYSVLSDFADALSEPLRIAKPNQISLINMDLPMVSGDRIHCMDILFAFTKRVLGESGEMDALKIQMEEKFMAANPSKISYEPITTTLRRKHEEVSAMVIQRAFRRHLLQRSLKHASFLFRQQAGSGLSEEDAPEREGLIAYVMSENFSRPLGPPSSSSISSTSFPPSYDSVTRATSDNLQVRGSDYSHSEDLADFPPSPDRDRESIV
Sequence of hERG potassium channel (Q12809 whole entry): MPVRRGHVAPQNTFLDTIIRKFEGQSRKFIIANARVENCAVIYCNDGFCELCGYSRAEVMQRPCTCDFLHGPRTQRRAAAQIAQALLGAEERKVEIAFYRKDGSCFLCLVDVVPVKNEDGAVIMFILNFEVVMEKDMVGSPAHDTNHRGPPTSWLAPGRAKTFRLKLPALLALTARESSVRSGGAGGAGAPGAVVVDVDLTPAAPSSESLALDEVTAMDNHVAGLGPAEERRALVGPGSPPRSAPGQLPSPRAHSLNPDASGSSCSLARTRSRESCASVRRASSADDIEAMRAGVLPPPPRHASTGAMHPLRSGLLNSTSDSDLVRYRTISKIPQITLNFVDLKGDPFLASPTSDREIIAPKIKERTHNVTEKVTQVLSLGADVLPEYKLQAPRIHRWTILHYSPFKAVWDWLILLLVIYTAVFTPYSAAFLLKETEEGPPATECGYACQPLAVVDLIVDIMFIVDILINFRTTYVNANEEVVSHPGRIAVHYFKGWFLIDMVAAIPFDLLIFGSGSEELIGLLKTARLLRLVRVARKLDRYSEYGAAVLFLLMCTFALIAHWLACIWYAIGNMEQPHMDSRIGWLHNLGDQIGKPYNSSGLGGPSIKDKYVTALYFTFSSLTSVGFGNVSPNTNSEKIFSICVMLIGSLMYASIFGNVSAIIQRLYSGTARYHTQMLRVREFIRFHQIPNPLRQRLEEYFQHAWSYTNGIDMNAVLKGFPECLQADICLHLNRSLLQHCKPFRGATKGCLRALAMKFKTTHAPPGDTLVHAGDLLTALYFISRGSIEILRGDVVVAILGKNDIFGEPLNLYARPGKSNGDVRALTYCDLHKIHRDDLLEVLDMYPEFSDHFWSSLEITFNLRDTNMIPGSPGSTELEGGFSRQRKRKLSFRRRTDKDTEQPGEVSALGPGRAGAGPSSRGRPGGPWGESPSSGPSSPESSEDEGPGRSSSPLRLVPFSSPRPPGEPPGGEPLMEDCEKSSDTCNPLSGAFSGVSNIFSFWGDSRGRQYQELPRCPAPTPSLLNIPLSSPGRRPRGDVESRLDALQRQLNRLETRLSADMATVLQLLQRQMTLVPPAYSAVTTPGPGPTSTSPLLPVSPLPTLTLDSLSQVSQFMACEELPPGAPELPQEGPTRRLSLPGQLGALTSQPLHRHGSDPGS

For `CC(C)COc1ccc(CNC(=O)N(Cc2ccc(F)cc2)C2CCN(C)CC2)cc1` [Pimavanserin], the IC50 (hCav1.2/β2/α2δ channels; manual patch clamp, room temperature, read-out: CaV 1.2 IC50) is listed as 1.2 µM, the IC50 ([1]; read-out: NaV 1.5 IC50) is listed as 1.2 µM and the “effect on QT interval” value [2] is listed as “prolongs the QT interval”.

In the case of `COc1cc(N)c(Cl)cc1C(=O)NC1CCN(CCCOc2ccc(F)cc2)CC1OC` (stereo not shown) [cisapride, reference compound], the inhibition at 0.09 µM (hERG potassium channel) is reported as about 80%.

Work on `COC(=O)C1=C(C)NC(C)=C(C(=O)OC)C1c1ccccc1[N+](=O)[O-]` [nifedipine, reference compound] yielded an inhibition at 0.1 µM (hCav1.2/β2/α2δ channels; 0.1 μM, positive control, previous results, read-out: inhibition of hCav1.2 current) of about 90%.

Work on `COc1ccccc1OCC(O)CN1CCN(CC(=O)Nc2c(C)cccc2C)CC1` (stereo not shown) [ranolazine dihydrochloride, Ranolazine dihydrochloride] yielded an inhibition at 100 µM ([1]; HEK293, 100 μM, positive control, previous results, read-out: inhibition of INa,L) of about 85%.

For “ATX-II: "Late hNav1.5 Current Agonist"; "ATX-II increases INa,L"; Molecular Weight 4935; Source: Alomone Labs”, the EC50 [3] is given as about 0.004 µM.
